Test results: patent US6737383B1, “Herbicidal oxadiazolidines” (priority 1999, dated 2004)

Key:
giant foxtail = assay: Test B pre/postemergence giant foxtail; assay type: in vivo, Setaria faberii
In short: (§1)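 Test chemicals in a non-phytotoxic solvent mixture with surfactant were sprayed preemergence onto planted seeds and postemergence onto plants 2 to 18 cm tall (1- to 4-leaf stage). After twelve to sixteen days in a greenhouse, injury was visually rated against untreated controls from 0 (no effect) to 10 (complete control).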

morningglory = assay: Test B pre/postemergence morningglory; assay type: in vivo, Ipomoea hederacea
In short: as §1

wild oat = assay: Test B pre/postemergence wild oat; assay type: in vivo, Avena fatua
In short: as §1

crabgrass = assay: Test B pre/postemergence crabgrass; assay type: in vivo, Digitaria sanguinalis
In short: as §1

rice = assay: Test B flood test rice; assay type: in vivo, Oryza sativa
In short: (§2)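 Flood test on plants grown to the 2-leaf stage; treated plants kept in greenhouse twelve to sixteen days, then visually rated against controls on a 0 (no effect) to 10 (complete control) scale.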

bedstraw = assay: Test B pre/postemergence bedstraw; assay type: in vivo, Galium aparine
In short: as §1

duck salad = assay: Test B flood test duck salad; assay type: in vivo, Heteranthera limosa
In short: as §2

surinam grass = assay: Test B pre/postemergence surinam grass; assay type: in vivo, Brachiaria decumbens
In short: as §1

rape = assay: Test B pre/postemergence rape; assay type: in vivo, Brassica napus
In short: as §1

velvetleaf = assay: Test B pre/postemergence velvetleaf; assay type: in vivo, Abutilon theophrasti
In short: as §1

soybean = assay: Test B pre/postemergence soybean; assay type: in vivo, Glycine max
In short: as §1

blackgrass = assay: Test B pre/postemergence blackgrass; assay type: in vivo, Alopecurus myosuroides
In short: as §1

smallflower flatsedge = assay: Test B flood test smallflower flatsedge; assay type: in vivo, Cyperus difformis; conditions: for S. Flatsedge plant response rating: scale of 0 to 10 where 0 is no effect and 10 is complete control
In short: as §2

purple nutsedge = assay: Test B pre/postemergence purple nutsedge; assay type: in vivo, Cyperus rotundus
In short: as §1

wheat = assay: Test B pre/postemergence wheat; assay type: in vivo, Triticum aestivum
In short: as §1

corn = assay: Test B pre/postemergence corn; assay type: in vivo, Zea mays
In short: as §1

[1] = Postemergence, Rate 125 g/ha, scale of 0 to 10 where 0 is no effect and 10 is complete control
[2] = Preemergence, Rate 31 g/ha, visual rating, scale 0 to 10 (0 no effect, 10 complete control)
[3] = Preemergence, Rate 62 g/ha, scale 0 to 10 (0 no effect, 10 complete control)
[4] = Preemergence, Rate 125 g/ha, 0 is no effect, 10 is complete control
[5] = Preemergence, Rate 250 g/ha, scale 0 to 10, 0 is no effect, 10 is complete control
[6] = Rate 31 g/ha, Postemergence, scale 0 to 10
[7] = Rate 62 g/ha, Postemergence, scale of 0 to 10 where 0 is no effect and 10 is complete control
[8] = Rate 250 g/ha, Postemergence, scale 0 to 10, 0 is no effect, 10 is complete control
[9] = Postemergence (flood test species), Rate 125 g/ha, scale of 0 to 10 where 0 is no effect and 10 is complete control
[10] = Rate 31 g/ha, Postemergence section (flood test species), scale 0 to 10
[11] = Rate 62 g/ha, Postemergence section, flood test species, scale of 0 to 10 where 0 is no effect and 10 is complete control
[12] = Rate 250 g/ha, Postemergence (flood test), scale 0 to 10, 0 is no effect, 10 is complete control

Cc1noc(C)c1-n1c(=O)on(C(=O)N(c2ccc(F)cc2F)C(C)C)c1=O [Compound 156]
Giant foxtail plant response rating (giant foxtail; [1]): 0
Giant foxtail plant response rating (giant foxtail; [2]): 0
Giant foxtail plant response rating (giant foxtail; [3]): 0
Giant foxtail plant response rating (0 to 10 scale) (giant foxtail; [4]): 2
Giant foxtail plant response rating (giant foxtail; [5]): 7
Giant foxtail plant response rating (giant foxtail; [6]): 0
Giant foxtail plant response rating (giant foxtail; [7]): 0
Plant response rating, Giant foxtail (giant foxtail; [8]): 0
Morningglory plant response rating (morningglory; [1]): 1
Morningglory plant response rating (morningglory; [2]): 0
Morningglory plant response rating (morningglory; [3]): 0
Morningglory plant response rating (0 to 10 scale) (morningglory; [4]): 0
Morningglory plant response rating (morningglory; [5]): 0
Morningglory plant response rating (morningglory; [6]): 0
Morningglory plant response rating (morningglory; [7]): 0
Plant response rating, Morningglory (morningglory; [8]): 2
Wild oats plant response rating (wild oat; [2]): 0
Wild oats plant response rating (wild oat; [3]): 0
Wild oats plant response rating (0 to 10 scale) (wild oat; [4]): 0
Wild oats plant response rating (wild oat; [5]): 0
Wild oats plant response rating (wild oat; [7]): 0
Plant response rating, Wild oats (wild oat; [8]): 0
Crabgrass plant response rating (crabgrass; [1]): 0
Crabgrass plant response rating (crabgrass; [2]): 0
Crabgrass plant response rating (crabgrass; [3]): 0
Crabgrass plant response rating (0 to 10 scale) (crabgrass; [4]): 4
Crabgrass plant response rating (crabgrass; [5]): 6
Crabgrass plant response rating (crabgrass; [6]): 0
Crabgrass plant response rating (crabgrass; [7]): 0
Plant response rating, Crabgrass (crabgrass; [8]): 0
Rice plant response rating (rice; [9]): 0
Rice plant response rating (rice; [10]): 0
Rice plant response rating (rice; [11]): 0
Plant response rating, Rice (rice; [12]): 0
Bedstraw plant response rating (bedstraw; [1]): 0
Bedstraw plant response rating (bedstraw; [2]): 0
Bedstraw plant response rating (bedstraw; [3]): 0
Bedstraw plant response rating (0 to 10 scale) (bedstraw; [4]): 0
Bedstraw plant response rating (bedstraw; [5]): 0
Bedstraw plant response rating (bedstraw; [6]): 0
Bedstraw plant response rating (bedstraw; [7]): 0
Plant response rating, Bedstraw (bedstraw; [8]): 0
Ducksalad plant response rating (duck salad; [9]): 0
Ducksalad plant response rating (duck salad; [10]): 0
Ducksalad plant response rating (duck salad; [11]): 0
Plant response rating, Ducksalad (duck salad; [12]): 0
B. signalgrass plant response rating (surinam grass; [1]): 0
B. signalgrass plant response rating (surinam grass; [2]): 0
B. signalgrass plant response rating (surinam grass; [3]): 0
B. signalgrass plant response rating (0 to 10 scale) (surinam grass; [4]): 0
B. signalgrass plant response rating (surinam grass; [5]): 2
B. signalgrass plant response rating (surinam grass; [6]): 0
B. signalgrass plant response rating (surinam grass; [7]): 0
Plant response rating, B. signalgrass (surinam grass; [8]): 0
Rape plant response rating (rape; [1]): 0
Rape plant response rating (rape; [2]): 0
Rape plant response rating (rape; [3]): 0
Rape plant response rating (0 to 10 scale) (rape; [4]): 0
Rape plant response rating (rape; [5]): 0
Rape plant response rating (rape; [6]): 0
Rape plant response rating (rape; [7]): 0
Plant response rating, Rape (rape; [8]): 0
Velvetleaf plant response rating (velvetleaf; [2]): 0
Velvetleaf plant response rating (velvetleaf; [3]): 0
Velvetleaf plant response rating (0 to 10 scale) (velvetleaf; [4]): 0
Velvetleaf plant response rating (velvetleaf; [5]): 0
Velvetleaf plant response rating (velvetleaf; [7]): 0
Plant response rating, Velvetleaf (velvetleaf; [8]): 0
Soybean plant response rating (soybean; [1]): 1
Soybean plant response rating (soybean; [2]): 0
Soybean plant response rating (soybean; [3]): 0
Soybean plant response rating (0 to 10 scale) (soybean; [4]): 0
Soybean plant response rating (soybean; [5]): 0
Soybean plant response rating (soybean; [7]): 1
Plant response rating, Soybean (soybean; [8]): 1
Blackgrass plant response rating (blackgrass; [1]): 0
Blackgrass plant response rating (blackgrass; [2]): 0
Blackgrass plant response rating (blackgrass; [3]): 0
Blackgrass plant response rating (0 to 10 scale) (blackgrass; [4]): 0
Blackgrass plant response rating (blackgrass; [5]): 3
Blackgrass plant response rating (blackgrass; [6]): 0
Blackgrass plant response rating (blackgrass; [7]): 0
Plant response rating, Blackgrass (blackgrass; [8]): 0
S. Flatsedge plant response rating (smallflower flatsedge; Postemergence (flood test species), Rate 125 g/ha): 0
S. Flatsedge plant response rating (smallflower flatsedge; Rate 62 g/ha, Postemergence section, flood test species): 0
Plant response rating, S. Flatsedge (smallflower flatsedge; [12]): 0
Nutsedge plant response rating (purple nutsedge; [1]): 0
Nutsedge plant response rating (purple nutsedge; [2]): 0
Nutsedge plant response rating (purple nutsedge; [3]): 0
Nutsedge plant response rating (0 to 10 scale) (purple nutsedge; [4]): 0
Nutsedge plant response rating (purple nutsedge; [5]): 0
Nutsedge plant response rating (purple nutsedge; [6]): 0
Nutsedge plant response rating (purple nutsedge; [7]): 0
Plant response rating, Nutsedge (purple nutsedge; [8]): 0
Wheat plant response rating (wheat; [2]): 0
Wheat plant response rating (wheat; [3]): 0
Wheat plant response rating (0 to 10 scale) (wheat; [4]): 0
Wheat plant response rating (wheat; [5]): 0
Wheat plant response rating (wheat; [7]): 0
Plant response rating, Wheat (wheat; [8]): 0
Corn plant response rating (corn; [1]): 0
Corn plant response rating (corn; [2]): 0
Corn plant response rating (corn; [3]): 0
Corn plant response rating (0 to 10 scale) (corn; [4]): 0
Corn plant response rating (corn; [5]): 0
Corn plant response rating (corn; [6]): 0
Corn plant response rating (corn; [7]): 0
Plant response rating, Corn (corn; [8]): 0
